Consider 29 molecules from patent US20240376091A1, “THIADIAZOLEAMIDE DERIVATIVES AND THEIR APPLICATIONS” (ZHEJIANG UNIVERSITY, priority 2021, published 2024).

SMILES strings stand for the structures.

For orientation: IC50 means the concentration that gives 50% inhibition.

This assay deals with T1, AR (Homo sapiens, UniProt P10275, T878A).
T1 construct: into the androgen-dependent PCa cells (LNCaP); endogenous in cells; host or cells: LNCaP-ARR2PB-eGFP
T1 sequence (P10275 1-920 T878A): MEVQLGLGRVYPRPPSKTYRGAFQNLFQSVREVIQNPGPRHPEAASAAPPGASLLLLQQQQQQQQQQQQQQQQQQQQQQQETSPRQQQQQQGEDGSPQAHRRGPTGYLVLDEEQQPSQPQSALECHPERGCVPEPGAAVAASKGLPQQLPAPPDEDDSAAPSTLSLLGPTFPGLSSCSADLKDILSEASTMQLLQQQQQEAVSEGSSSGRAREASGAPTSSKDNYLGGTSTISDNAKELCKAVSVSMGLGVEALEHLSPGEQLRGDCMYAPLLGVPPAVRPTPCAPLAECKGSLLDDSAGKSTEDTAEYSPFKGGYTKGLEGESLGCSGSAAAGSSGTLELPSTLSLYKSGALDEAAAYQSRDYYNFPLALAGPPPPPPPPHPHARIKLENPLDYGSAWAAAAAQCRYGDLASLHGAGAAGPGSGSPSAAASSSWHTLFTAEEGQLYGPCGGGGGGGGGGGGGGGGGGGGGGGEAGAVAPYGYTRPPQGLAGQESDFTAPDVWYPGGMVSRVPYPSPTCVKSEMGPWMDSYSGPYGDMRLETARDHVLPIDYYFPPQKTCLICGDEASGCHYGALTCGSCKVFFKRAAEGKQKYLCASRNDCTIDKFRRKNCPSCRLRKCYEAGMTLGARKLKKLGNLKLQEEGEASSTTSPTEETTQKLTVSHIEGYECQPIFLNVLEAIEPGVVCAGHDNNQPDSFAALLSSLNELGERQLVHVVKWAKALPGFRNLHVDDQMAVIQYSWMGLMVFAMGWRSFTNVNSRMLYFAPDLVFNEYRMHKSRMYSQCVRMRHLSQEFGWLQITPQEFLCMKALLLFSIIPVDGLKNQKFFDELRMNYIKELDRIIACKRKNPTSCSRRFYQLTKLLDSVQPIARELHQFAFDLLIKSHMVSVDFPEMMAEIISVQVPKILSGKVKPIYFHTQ
As to the kind of experiment: AR transcriptional activity, LNCaP-ARR2PB-eGFP reporter cells. The class given is cell-based. Conditions: read-out: IC50 AR transcriptional activities. From the text:
Detection principles: We conducted a stable transfection of promoter ARR2PB known for its strong AR responsiveness, into the androgen-dependent PCa cells (LNCaP). The expression of enhanced green fluorescent protein (eGFP) is depending on the degree of activation of AR. Therefore, LNCaP-ARR2PB-eGFP cell line could quantitatively determine the AR antagonistic activities of the compounds by evaluating the expression of eGFP.
For the molecule `CC(Cc1nsc(NC(=O)c2cc(-c3cccc(C#N)c3)co2)n1)N1CCCCC1` (centres unmarked) [Compound G-7, 4-(3-Cyanophenyl)-N-(3-(2-(piperidin-1-yl)propyl)-1,2,4-thiadiazol-5-yl)furan-2-carboxamide], the IC50 was determined as 23.2 µM.
In the case of `CC(=O)Cc1nsc(NC(=O)c2cc(-c3cccc(N)c3)oc2C)n1` [Compound A-24, 5-(3-Aminophenyl)-2-methyl-N-(3-(2-oxopropyl)-1,2,4-thiadiazol-5-yl)furan-3-carboxamide], the IC50 was 1.62 µM.
`CCN(CC)C(C)Cc1nsc(NC(=O)c2coc(-c3cccc(C(F)(F)F)c3)c2)n1` (centres unmarked) [Compound B-7, N-(3-(2-(diethylamino)propyl)-1,2,4-thiadiazol-5-yl)-5-(3-(trifluoromethyl)phenyl)furan-3-carboxamide]: the IC50 is 15 µM.
Consider `Cc1oc(-c2cccc(C(F)(F)F)c2)cc1C(=O)Nc1nc(CC(C)N(C)C)ns1` (centres unmarked) [Compound A-38, N-(3-(2-(dimethylamino)propyl)-1,2,4-thiadiazol-5-yl)-2-methyl-5-(3-(trifluoromethyl)phenyl)furan-3-carboxamide], for which the IC50 stood at 0.09 µM.
As for `O=C(Nc1nc(CN2CCCCC2)ns1)c1csc(-c2cccc(OC(F)F)c2)c1` [Compound D-56, 5-(3-(Difluoromethoxy)phenyl)-N-(3-(piperidin-1-ylmethyl)-1,2,4-thiadiazol-5-yl)thiophene-3-carboxamide], the figure is 42.1 µM; as for `[2H]c1c(-c2cccc(OC(F)(F)F)c2)oc(C)c1C(=O)Nc1nc(CC(C)=O)ns1` [Compound A-36, 2-Methyl-N-(3-(2-oxopropyl)-1,2,4-thiadiazol-5-yl)-5-(3-(trifluoromethoxy)phenyl)furan-4-d-3-carboxamide], 0.07 µM.
With `CC(=O)Cc1nsc(NC(=O)c2cc(-c3cccc(C(=O)O)c3)oc2C)n1` [Compound A-29, 3-(5-Methyl-4-((3-(2-oxopropyl)-1,2,4-thiadiazol-5-yl)carbamoyl)furan-2-yl)benzoic acid], the IC50 is 0.94 µM.
`CC(Cc1nsc(NC(=O)c2csc(-c3cccc(C(F)(F)F)c3)c2)n1)N(C)C` [Compound D-6, N-(3-(2-(dimethylamino)propyl)-1,2,4-thiadiazol-5-yl)-5-(3-(trifluoromethyl)phenyl)thiophene-3-carboxamide]: the IC50 was 43.8 µM.
With `CC(=O)Cc1nsc(NC(=O)c2cc(-c3cccc(OC(F)(F)F)c3)oc2C)n1` [Compound A-13, 2-Methyl-N-(3-(2-oxopropyl)-1,2,4-thiadiazol-5-yl)-5-(3-(trifluoromethoxy)phenyl)furan-3-carboxamide], the concentration for half-maximal inhibition (IC50) amounted to 0.48 µM.
With `CC(O)(Cc1nsc(NC(=O)c2cc(-c3cccc(C(F)(F)F)c3)oc2C(F)(F)F)n1)C(F)(F)F` (centres unmarked) [Compound E-17, N-(3-(3,3,3-trifluoro-2-hydroxy-2-methylpropyl)-1,2,4-thiadiazol-5-yl)-2-(trifluoromethyl)-5-(3-(trifluoromethyl)phenyl)furan-3-carboxamide], the IC50 was determined as 0.79 µM.
For `CC(=O)Cc1nsc(NC(=O)c2cc(-c3cccc(OC(F)F)c3)oc2C(F)(F)F)n1` [Compound E-5, 5-(3-(Difluoromethoxy)phenyl)-N-(3-(2-oxopropyl)-1,2,4-thiadiazol-5-yl)-2-(trifluoro-methyl)furan-3-carboxamide], the half-inhibitory concentration (IC50) stood at 1.48 µM.
In the case of `CCN(CC)Cc1nsc(NC(=O)c2coc(-c3cccc(OC)c3)c2)n1` [Compound B-50, N-(3-((diethylamino)methyl)-1,2,4-thiadiazol-5-yl)-5-(3-methoxyphenyl)furan-3-carboxamide], the concentration for half-maximal inhibition (IC50) came out at 22.9 µM.
Regarding `CC(Cc1nsc(NC(=O)c2cc(-c3cccc(OC(F)(F)F)c3)oc2C(F)(F)F)n1)N1CCOCC1` (centres unmarked) [Compound E-10, N-(3-(2-morpholinopropyl)-1,2,4-thiadiazol-5-yl)-5-(3-(trifluoromethoxy)phenyl)-2-(trifluoromethyl)furan-3-carboxamide], the 50% inhibitory concentration (IC50) worked out at 0.99 µM.
As for `COc1cccc(-c2cc(C(=O)Nc3nc(CC(C)=O)ns3)co2)c1` [Compound B-3, 5-(3-Methoxyphenyl)-N-(3-(2-oxopropyl)-1,2,4-thiadiazol-5-yl)furan-3-carboxamide], the figure is 12.6 µM; as for `N#Cc1cccc(-c2coc(C(=O)Nc3nc(CN4CCCCC4)ns3)c2)c1` [Compound G-25, 4-(3-Cyanophenyl)-N-(3-(piperidin-1-ylmethyl)-1,2,4-thiadiazol-5-yl)furan-2-carboxamide], 19.8 µM; as for `Cc1oc(C(=O)Nc2nc(CC(C)N3CCOCC3)ns2)cc1-c1cccc(OC(F)(F)F)c1` (centres unmarked) [Compound F-9, 5-Methyl-N-(3-(2-morpholinopropyl)-1,2,4-thiadiazol-5-yl)-4-(3-(trifluoromethoxy)phenyl)furan-2-carboxamide], 23.5 µM.
Take `Cc1sc(-c2cccc(C(F)(F)F)c2)cc1C(=O)Nc1nc(CC(C)(F)F)ns1` [Compound C-35, N-(3-(2,2-difluoropropyl)-1,2,4-thiadiazol-5-yl)-2-methyl-5-(3-(trifluoromethyl)phenyl)thiophene-3-carboxamide]: the half-maximal inhibitory concentration (IC50) came to 29.1 µM.
On to `COc1cccc(-c2coc(C(=O)Nc3nc(CN4CCOCC4)ns3)c2)c1` [Compound G-26, 4-(3-Methoxyphenyl)-N-(3-(morpholinomethyl)-1,2,4-thiadiazol-5-yl)furan-2-carboxamide], for which the IC50 stood at 27.1 µM.
As for `Cc1oc(C(=O)Nc2nc(CN3CCCCC3)ns2)cc1-c1cccc(C#N)c1` [Compound F-25, 4-(3-Cyanophenyl)-5-methyl-N-(3-(piperidin-1-ylmethyl)-1,2,4-thiadiazol-5-yl)furan-2-carboxamide], the figure is 15.5 µM; as for `CC(=O)Cc1nsc(NC(=O)c2cc(-c3cccc(OC(F)(F)F)c3)co2)n1` [Compound G-4, N-(3-(2-oxopropyl)-1,2,4-thiadiazol-5-yl)-4-(3-(trifluoromethoxy)phenyl)furan-2-carboxamide], 11.6 µM; as for `Cc1oc(-c2cccc(C(F)(F)F)c2)cc1C(=O)Nc1nc(CC(C)N2CCCC2)ns1` (centres unmarked) [Compound A-40, 2-Methyl-N-(3-(2-(pyrrolidin-1-yl)propyl)-1,2,4-thiadiazol-5-yl)-5-(3-(trifluoromethyl)phenyl)furan-3-carboxamide], 0.23 µM.
For `CCN(CC)Cc1nsc(NC(=O)c2cc(-c3cccc(C(F)(F)F)c3)oc2C)n1` [Compound A-107, N-(3-((diethylamino)methyl)-1,2,4-thiadiazol-5-yl)-2-methyl-5-(3-(trifluoromethyl)phenyl)furan-3-carboxamide] the value was 1.77 µM; for `CC(O)(Cc1nsc(NC(=O)c2csc(-c3cccc(C(F)(F)F)c3)c2)n1)C(F)(F)F` [Compound D-25, N-(3-(3,3,3-trifluoro-2-hydroxy-2-methylpropyl)-1,2,4-thiadiazol-5-yl)-5-(3-(trifluoro-methyl)phenyl)thiophene-3-carboxamide], 33 µM; for `Cc1oc(-c2cccc(C#N)c2)cc1C(=O)Nc1nc(CCl)ns1` [Compound A-112, N-(3-(chloromethyl)-1,2,4-thiadiazol-5-yl)-5-(3-cyanophenyl)-2-methylfuran-3-carboxamide], 1.87 µM.
`CC(=O)Cc1nsc(NC(=O)c2csc(-c3cccc(C#N)c3)c2)n1` [Compound D-2, 5-(3-Cyanophenyl)-N-(3-(2-oxopropyl)-1,2,4-thiadiazol-5-yl)thiophene-3-carboxamide]: the IC50 turned out to be 32.6 µM.
For `Cc1oc(C(=O)Nc2nc(CN3CCN(C)CC3)ns2)cc1-c1cccc(OC(F)F)c1` [Compound F-28, 4-(3-(Difluoromethoxy)phenyl)-5-methyl-N-(3-((4-methylpiperazin-1-yl)methyl)-1,2,4-thiadiazol-5-yl)furan-2-carboxamide], the IC50 turned out to be 16.4 µM.
As for `Cc1oc(C(=O)Nc2nc(CC(C)N3CCCC3)ns2)cc1-c1cccc(C(F)(F)F)c1` (centres unmarked) [Compound F-6], the figure is 17.9 µM.
For `Cc1oc(-c2cccc(C(F)(F)F)c2)cc1C(=O)Nc1nc(CN(C)C)ns1` [Compound A-106, N-(3-((dimethylamino)methyl)-1,2,4-thiadiazol-5-yl)-2-methyl-5-(3-(trifluoromethyl)phenyl)furan-3-carboxamide] the value was 1.67 µM.
For `COc1cccc(-c2cc(C(=O)Nc3nc(CC(C)=O)ns3)c(C)o2)c1` [Compound A-4, 5-(3-Methoxyphenyl)-2-methyl-N-(3-(2-oxopropyl)-1,2,4-thiadiazol-5-yl)furan-3-carboxamide] the value was 0.35 µM.
